Experimental data: publication PMC12155096 (International Journal of Molecular Sciences, 2025); call rule not given here

target: T1, human CYP2C19 (Homo sapiens, UniProt P33261); test: biochemical; settings: CYP2C19 AC50 (half-maximal activity concentration)
T1 sequence (P33261 whole entry): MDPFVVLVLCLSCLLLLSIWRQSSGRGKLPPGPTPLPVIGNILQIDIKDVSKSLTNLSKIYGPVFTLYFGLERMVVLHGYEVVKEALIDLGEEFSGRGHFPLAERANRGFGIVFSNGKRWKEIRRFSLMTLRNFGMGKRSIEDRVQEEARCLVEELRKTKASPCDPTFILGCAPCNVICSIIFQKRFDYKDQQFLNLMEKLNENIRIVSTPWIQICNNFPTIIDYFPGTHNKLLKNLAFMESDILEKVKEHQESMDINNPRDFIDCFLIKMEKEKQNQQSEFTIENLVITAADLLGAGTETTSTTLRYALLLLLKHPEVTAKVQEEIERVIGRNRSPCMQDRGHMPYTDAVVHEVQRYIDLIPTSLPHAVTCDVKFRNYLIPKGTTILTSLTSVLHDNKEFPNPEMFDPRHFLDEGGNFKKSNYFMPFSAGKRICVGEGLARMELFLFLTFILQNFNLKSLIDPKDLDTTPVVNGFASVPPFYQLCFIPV

SMILES | AC50 [µM]
COC(=O)N(OC)c1ccccc1COc1ccn(-c2ccc(Cl)cc2)n1 [Pyraclostrobin] | 0.57

same assay, conditions: CYP2C19 IC50 (half-maximal inhibitory concentration)

SMILES | IC50 [µM]
CCCCC(C#N)(Cn1cncn1)c1ccc(Cl)cc1 (stereo not shown) [Myclobutanil] | 0.66
OC(c1ccc(F)cc1)(c1cncnc1)c1ccccc1Cl (stereo not shown) [Nuarimol] | 2.7
CCOP(=S)(OCC)Oc1ccc([N+](=O)[O-])cc1 [Parathion] | 0.17
C=CC(=O)OCC(CO)(COC(=O)C=C)COC(=O)C=C [Pentaerythritol triacrylate] | 22.6
CCOP(=S)(OCC)SCn1c(=O)oc2cc(Cl)ccc21 [Phosalone] | 0.13
Clc1ccccc1-c1nc(-c2ccncc2)no1 [Pifexole] | 0.74
COC(=O)N(OC)c1ccccc1COc1ccn(-c2ccc(Cl)cc2)n1 [Pyraclostrobin] | 0.57

target: T2, human CYP2C9 (Homo sapiens, UniProt P11712); test: not given; settings: human
T2 sequence (P11712 whole entry): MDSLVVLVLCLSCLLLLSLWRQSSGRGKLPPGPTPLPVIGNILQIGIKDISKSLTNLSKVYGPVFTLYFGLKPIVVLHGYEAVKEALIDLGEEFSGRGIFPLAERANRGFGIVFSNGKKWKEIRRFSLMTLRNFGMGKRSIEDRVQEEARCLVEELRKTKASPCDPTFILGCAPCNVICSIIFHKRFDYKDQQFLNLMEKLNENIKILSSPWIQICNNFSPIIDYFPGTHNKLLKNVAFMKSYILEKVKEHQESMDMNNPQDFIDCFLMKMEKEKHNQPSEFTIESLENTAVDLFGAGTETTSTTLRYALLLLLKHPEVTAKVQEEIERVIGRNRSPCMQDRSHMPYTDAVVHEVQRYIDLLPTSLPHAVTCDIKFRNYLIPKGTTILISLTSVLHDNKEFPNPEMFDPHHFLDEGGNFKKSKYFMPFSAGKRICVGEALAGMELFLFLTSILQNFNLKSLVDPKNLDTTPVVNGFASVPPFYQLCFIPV

SMILES | CYP2C9 Efficacy (in parenthesis)
CCCCC(C#N)(Cn1cncn1)c1ccc(Cl)cc1 (stereo not shown) [Myclobutanil] | 25.18 ± 0 (-109 ± 4) %
OC(c1ccc(F)cc1)(c1cncnc1)c1ccccc1Cl (stereo not shown) [Nuarimol] | 23.57 ± 4.24 (-118 ± 8) %
CCOP(=S)(OCC)Oc1ccc([N+](=O)[O-])cc1 [Parathion] | 1.62 ± 0.19 (-99 ± 2) %
C=CC(=O)OCC(CO)(COC(=O)C=C)COC(=O)C=C [Pentaerythritol triacrylate] | 13.25 ± 1.87 (-108 ± 2) %
CCOP(=S)(OCC)SCn1c(=O)oc2cc(Cl)ccc21 [Phosalone] | 1.21 ± 0.14 (-101 ± 6) %
Clc1ccccc1-c1nc(-c2ccncc2)no1 [Pifexole] | 6.98 ± 3.95 (-79 ± 12) %
COC(=O)N(OC)c1ccccc1COc1ccn(-c2ccc(Cl)cc2)n1 [Pyraclostrobin] | 5.35 ± 1.51 (-104 ± 6) %

target: T2, human CYP2C9; test: biochemical; settings: not given

SMILES | IC50 [µM]
CCOP(=S)(OCC)Oc1ccc([N+](=O)[O-])cc1 [Parathion] | 1.62
CCOP(=S)(OCC)SCn1c(=O)oc2cc(Cl)ccc21 [Phosalone] | 1.21

same assay, conditions: CYP2C9 AC50 (half-maximal activity concentration)

SMILES | AC50 [µM]
COC(=O)N(OC)c1ccccc1COc1ccn(-c2ccc(Cl)cc2)n1 [Pyraclostrobin] | 5.35

same assay, conditions: CYP2C9 IC50 (half-maximal inhibitory concentration)

SMILES | IC50 [µM]
CCCCC(C#N)(Cn1cncn1)c1ccc(Cl)cc1 (stereo not shown) [Myclobutanil] | 25.2
OC(c1ccc(F)cc1)(c1cncnc1)c1ccccc1Cl (stereo not shown) [Nuarimol] | 23.6
C=CC(=O)OCC(CO)(COC(=O)C=C)COC(=O)C=C [Pentaerythritol triacrylate] | 13.2
Clc1ccccc1-c1nc(-c2ccncc2)no1 [Pifexole] | 6.98
COC(=O)N(OC)c1ccccc1COc1ccn(-c2ccc(Cl)cc2)n1 [Pyraclostrobin] | 5.35

target: T3, human CYP1A2 (Homo sapiens, UniProt P05177); test: not given; settings: human
T3 sequence (P05177 1-516): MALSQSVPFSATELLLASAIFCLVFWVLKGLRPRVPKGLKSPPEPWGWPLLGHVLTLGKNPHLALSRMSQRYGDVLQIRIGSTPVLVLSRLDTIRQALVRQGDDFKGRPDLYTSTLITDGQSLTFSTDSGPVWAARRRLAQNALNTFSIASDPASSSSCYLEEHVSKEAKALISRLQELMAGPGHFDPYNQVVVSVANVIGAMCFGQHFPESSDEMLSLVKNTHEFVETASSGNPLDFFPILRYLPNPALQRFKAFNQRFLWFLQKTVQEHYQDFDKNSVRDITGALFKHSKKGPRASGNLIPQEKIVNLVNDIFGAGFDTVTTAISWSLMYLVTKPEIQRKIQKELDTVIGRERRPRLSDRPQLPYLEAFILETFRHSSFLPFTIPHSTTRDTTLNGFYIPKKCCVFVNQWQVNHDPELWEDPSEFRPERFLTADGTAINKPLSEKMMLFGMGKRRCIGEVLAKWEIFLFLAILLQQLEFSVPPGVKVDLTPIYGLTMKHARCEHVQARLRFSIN

SMILES | CYP1A2 Efficacy (in parenthesis)
CCCCC(C#N)(Cn1cncn1)c1ccc(Cl)cc1 (stereo not shown) [Myclobutanil] | 33.28 ± 11.5 (-34 ± 3) %
OC(c1ccc(F)cc1)(c1cncnc1)c1ccccc1Cl (stereo not shown) [Nuarimol] | 49.42 ± 19.58 (-46 ± 6) %
CCOP(=S)(OCC)Oc1ccc([N+](=O)[O-])cc1 [Parathion] | 0.99 ± 0.17 (-96 ± 2) %
C=CC(=O)OCC(CO)(COC(=O)C=C)COC(=O)C=C [Pentaerythritol triacrylate] | 71.58 ± 8.23 (-54 ± 11) %
CCOP(=S)(OCC)SCn1c(=O)oc2cc(Cl)ccc21 [Phosalone] | 2.98 ± 0.74 (-99 ± 6) %
Clc1ccccc1-c1nc(-c2ccncc2)no1 [Pifexole] | 0.39 ± 0.12 (-91 ± 4) %
COC(=O)N(OC)c1ccccc1COc1ccn(-c2ccc(Cl)cc2)n1 [Pyraclostrobin] | 0.99 ± 0.24 (-102 ± 3) %

target: T4, CYP3A4 (Homo sapiens, UniProt P08684); test: not given; settings: not given
T4 sequence (P08684 whole entry): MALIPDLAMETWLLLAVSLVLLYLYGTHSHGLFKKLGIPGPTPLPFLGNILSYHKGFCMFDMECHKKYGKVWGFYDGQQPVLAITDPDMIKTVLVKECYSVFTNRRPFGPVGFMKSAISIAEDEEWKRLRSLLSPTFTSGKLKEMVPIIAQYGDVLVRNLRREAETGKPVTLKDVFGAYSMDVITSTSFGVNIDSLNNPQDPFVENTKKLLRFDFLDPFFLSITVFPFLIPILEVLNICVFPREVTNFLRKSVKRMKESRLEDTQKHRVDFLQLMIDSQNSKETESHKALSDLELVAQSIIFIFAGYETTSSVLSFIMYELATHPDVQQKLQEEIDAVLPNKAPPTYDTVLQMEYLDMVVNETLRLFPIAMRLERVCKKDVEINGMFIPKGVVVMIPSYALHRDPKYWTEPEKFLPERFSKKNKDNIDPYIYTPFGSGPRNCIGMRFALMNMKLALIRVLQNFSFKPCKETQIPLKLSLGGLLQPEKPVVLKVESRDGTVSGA

SMILES | CYP3A4 Efficacy (in parenthesis) | CYP3A4 IC50 (half-maximal inhibitory concentration)
CCCCC(C#N)(Cn1cncn1)c1ccc(Cl)cc1 (stereo not shown) [Myclobutanil] | 0.17 ± 0.05 (-75 ± 2) % | 
OC(c1ccc(F)cc1)(c1cncnc1)c1ccccc1Cl (stereo not shown) [Nuarimol] | 0.31 ± 0.08 (-68 ± 6) % | 
CCOP(=S)(OCC)Oc1ccc([N+](=O)[O-])cc1 [Parathion] | 3.18 ± 0.89 (-79 ± 1) % | 
C=CC(=O)OCC(CO)(COC(=O)C=C)COC(=O)C=C [Pentaerythritol triacrylate] | 0.93 ± 0.39 (-89 ± 6) % | 
CCOP(=S)(OCC)SCn1c(=O)oc2cc(Cl)ccc21 [Phosalone] | 0.3 ± 0.07 (-85 ± 5) % | 
Clc1ccccc1-c1nc(-c2ccncc2)no1 [Pifexole] | 33.57 ± 4.62 (-77 ± 10) % | 
COC(=O)N(OC)c1ccccc1COc1ccn(-c2ccc(Cl)cc2)n1 [Pyraclostrobin] | 1.31 ± 0.09 (52 ± 7) % | 1.31 ± 0.09 (52 ± 7) µM

target: T5, human CYP2D6 (Homo sapiens, UniProt P10635); test: not given; settings: human
T5 sequence (P10635 whole entry): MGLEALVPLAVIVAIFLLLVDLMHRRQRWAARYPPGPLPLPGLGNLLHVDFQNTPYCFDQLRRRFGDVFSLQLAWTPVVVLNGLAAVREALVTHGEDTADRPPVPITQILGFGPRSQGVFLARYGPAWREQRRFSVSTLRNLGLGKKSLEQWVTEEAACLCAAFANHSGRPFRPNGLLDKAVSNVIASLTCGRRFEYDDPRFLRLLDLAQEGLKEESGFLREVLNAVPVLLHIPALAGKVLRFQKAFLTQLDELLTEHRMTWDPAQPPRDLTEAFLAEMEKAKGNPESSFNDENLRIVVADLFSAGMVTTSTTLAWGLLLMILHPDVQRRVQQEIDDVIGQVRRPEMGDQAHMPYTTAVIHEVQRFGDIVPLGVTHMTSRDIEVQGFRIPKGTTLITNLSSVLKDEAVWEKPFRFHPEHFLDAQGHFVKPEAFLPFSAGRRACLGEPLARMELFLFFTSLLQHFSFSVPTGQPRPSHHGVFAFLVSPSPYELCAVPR

SMILES | CYP2D6 Efficacy (in parenthesis)
CCCCC(C#N)(Cn1cncn1)c1ccc(Cl)cc1 (stereo not shown) [Myclobutanil] | 49.32 ± 12.32 (-38 ± 7) %
OC(c1ccc(F)cc1)(c1cncnc1)c1ccccc1Cl (stereo not shown) [Nuarimol] | 35.73 ± 4.11 (-53 ± 5) %
CCOP(=S)(OCC)Oc1ccc([N+](=O)[O-])cc1 [Parathion] | 32.26 ± 3.71 (-69 ± 3) %
C=CC(=O)OCC(CO)(COC(=O)C=C)COC(=O)C=C [Pentaerythritol triacrylate] | 63.77 ± 20.97 (-79 ± 21) %
CCOP(=S)(OCC)SCn1c(=O)oc2cc(Cl)ccc21 [Phosalone] | 15.88 ± 2.02 (-103 ± 4) %
Clc1ccccc1-c1nc(-c2ccncc2)no1 [Pifexole] | 20.06 ± 9.42 (-76 ± 17) %
COC(=O)N(OC)c1ccccc1COc1ccn(-c2ccc(Cl)cc2)n1 [Pyraclostrobin] | 32.63 ± 15.32 (-79 ± 28) %

target: Photinus pyralis (firefly) luciferase (Photinus pyralis, UniProt P08659); test: biochemical; assay type: biochemical; settings: not given
Sequence (P08659 whole entry): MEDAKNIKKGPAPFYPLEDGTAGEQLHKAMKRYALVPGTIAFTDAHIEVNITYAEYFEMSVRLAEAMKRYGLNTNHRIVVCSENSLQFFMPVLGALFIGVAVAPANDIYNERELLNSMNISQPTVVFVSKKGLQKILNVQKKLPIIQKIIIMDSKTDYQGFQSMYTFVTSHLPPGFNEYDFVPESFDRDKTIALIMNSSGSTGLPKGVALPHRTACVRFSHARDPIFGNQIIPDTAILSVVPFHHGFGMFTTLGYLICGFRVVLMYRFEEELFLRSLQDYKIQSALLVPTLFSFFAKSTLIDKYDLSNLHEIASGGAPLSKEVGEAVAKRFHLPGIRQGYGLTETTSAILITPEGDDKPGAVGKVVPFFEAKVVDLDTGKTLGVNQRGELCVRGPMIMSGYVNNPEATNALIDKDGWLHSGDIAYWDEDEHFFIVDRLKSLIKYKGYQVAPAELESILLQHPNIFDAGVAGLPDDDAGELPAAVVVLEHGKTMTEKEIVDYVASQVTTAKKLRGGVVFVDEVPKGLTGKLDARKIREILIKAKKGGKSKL

SMILES | Luciferase IC50 (half-maximal inhibitory concentration) | IC50 [µM]
CCCCC(C#N)(Cn1cncn1)c1ccc(Cl)cc1 (stereo not shown) [Myclobutanil] | Inactive | 
OC(c1ccc(F)cc1)(c1cncnc1)c1ccccc1Cl (stereo not shown) [Nuarimol] | Inactive | 
CCOP(=S)(OCC)Oc1ccc([N+](=O)[O-])cc1 [Parathion] | Inactive | 
C=CC(=O)OCC(CO)(COC(=O)C=C)COC(=O)C=C [Pentaerythritol triacrylate] | Inactive | 
CCOP(=S)(OCC)SCn1c(=O)oc2cc(Cl)ccc21 [Phosalone] |  | 49.6
Clc1ccccc1-c1nc(-c2ccncc2)no1 [Pifexole] |  | 3.23
COC(=O)N(OC)c1ccccc1COc1ccn(-c2ccc(Cl)cc2)n1 [Pyraclostrobin] |  | 56.4

target: T3, human CYP1A2; test: biochemical; settings: CYP1A2 AC50 (half-maximal activity concentration)

SMILES | AC50 [µM]
COC(=O)N(OC)c1ccccc1COc1ccn(-c2ccc(Cl)cc2)n1 [Pyraclostrobin] | 0.99

same assay, conditions: CYP1A2 IC50 (half-maximal inhibitory concentration)

SMILES | IC50 [µM]
CCCCC(C#N)(Cn1cncn1)c1ccc(Cl)cc1 (stereo not shown) [Myclobutanil] | 33.3
OC(c1ccc(F)cc1)(c1cncnc1)c1ccccc1Cl (stereo not shown) [Nuarimol] | 49.4
CCOP(=S)(OCC)Oc1ccc([N+](=O)[O-])cc1 [Parathion] | 0.99
C=CC(=O)OCC(CO)(COC(=O)C=C)COC(=O)C=C [Pentaerythritol triacrylate] | 71.6
CCOP(=S)(OCC)SCn1c(=O)oc2cc(Cl)ccc21 [Phosalone] | 2.98
Clc1ccccc1-c1nc(-c2ccncc2)no1 [Pifexole] | 0.39
COC(=O)N(OC)c1ccccc1COc1ccn(-c2ccc(Cl)cc2)n1 [Pyraclostrobin] | 0.99

target: T4, CYP3A4; test: biochemical; settings: CYP3A4 AC50 (half-maximal activity concentration)

SMILES | AC50 [µM]
COC(=O)N(OC)c1ccccc1COc1ccn(-c2ccc(Cl)cc2)n1 [Pyraclostrobin] | 1.31

same assay, conditions: CYP3A4 IC50 (half-maximal inhibitory concentration)

SMILES | IC50 [µM]
CCCCC(C#N)(Cn1cncn1)c1ccc(Cl)cc1 (stereo not shown) [Myclobutanil] | 0.17
OC(c1ccc(F)cc1)(c1cncnc1)c1ccccc1Cl (stereo not shown) [Nuarimol] | 0.31
CCOP(=S)(OCC)Oc1ccc([N+](=O)[O-])cc1 [Parathion] | 3.18
C=CC(=O)OCC(CO)(COC(=O)C=C)COC(=O)C=C [Pentaerythritol triacrylate] | 0.93
CCOP(=S)(OCC)SCn1c(=O)oc2cc(Cl)ccc21 [Phosalone] | 0.3
Clc1ccccc1-c1nc(-c2ccncc2)no1 [Pifexole] | 33.6

target: T1, human CYP2C19; test: not given; settings: human

SMILES | CYP2C19 Efficacy (in parenthesis)
CCCCC(C#N)(Cn1cncn1)c1ccc(Cl)cc1 (stereo not shown) [Myclobutanil] | 0.66 ± 0.12 (-168 ± 41) %
OC(c1ccc(F)cc1)(c1cncnc1)c1ccccc1Cl (stereo not shown) [Nuarimol] | 2.7 ± 1.21 (-141 ± 5) %
CCOP(=S)(OCC)Oc1ccc([N+](=O)[O-])cc1 [Parathion] | 0.17 ± 0.04 (-144 ± 4) %
C=CC(=O)OCC(CO)(COC(=O)C=C)COC(=O)C=C [Pentaerythritol triacrylate] | 22.64 ± 2.6 (-137 ± 14) %
CCOP(=S)(OCC)SCn1c(=O)oc2cc(Cl)ccc21 [Phosalone] | 0.13 ± 0.05 (-148 ± 13) %
Clc1ccccc1-c1nc(-c2ccncc2)no1 [Pifexole] | 0.74 ± 0.41 (-105 ± 12) %
COC(=O)N(OC)c1ccccc1COc1ccn(-c2ccc(Cl)cc2)n1 [Pyraclostrobin] | 0.57 ± 0.25 (-152 ± 29) %

target: T5, human CYP2D6; test: biochemical; settings: not given

SMILES | IC50 [µM]
CCOP(=S)(OCC)Oc1ccc([N+](=O)[O-])cc1 [Parathion] | 32.3
CCOP(=S)(OCC)SCn1c(=O)oc2cc(Cl)ccc21 [Phosalone] | 15.9

same assay, conditions: CYP2D6 AC50 (half-maximal activity concentration)

SMILES | AC50 [µM]
COC(=O)N(OC)c1ccccc1COc1ccn(-c2ccc(Cl)cc2)n1 [Pyraclostrobin] | 32.6

same assay, conditions: CYP2D6 IC50 (half-maximal inhibitory concentration)

SMILES | IC50 [µM]
CCCCC(C#N)(Cn1cncn1)c1ccc(Cl)cc1 (stereo not shown) [Myclobutanil] | 49.3
OC(c1ccc(F)cc1)(c1cncnc1)c1ccccc1Cl (stereo not shown) [Nuarimol] | 35.7
C=CC(=O)OCC(CO)(COC(=O)C=C)COC(=O)C=C [Pentaerythritol triacrylate] | 63.8
Clc1ccccc1-c1nc(-c2ccncc2)no1 [Pifexole] | 20.1
COC(=O)N(OC)c1ccccc1COc1ccn(-c2ccc(Cl)cc2)n1 [Pyraclostrobin] | 32.6
